Results: ChEMBL document CHEMBL1201861, “Genomics of Drug Sensitity in Cancer screening data, Wellcome Trust Sanger Institute”
pIC50: −log10 of the molar value. Values joined by “and” are separate entries in the source; they are usually repeats but may differ in a detail not shown here. Identical values can stand only once. Where a SMILES comes first, the peptide text is derived from it. The star is where a group is joined. Cbz = O=C(OCc1ccccc1)*

Assays:
EC-GI-10 = test: cells; format: functional, cell-based, Homo sapiens
Description: SANGER: Inhibition of human EC-GI-10 cell growth in a cell viability assay.

NCI-H2171 = test: cells; format: functional, cell-based, Homo sapiens;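 further: growth inhibition of human NCI-H2171 cells, read out by a cell viability assay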
Description: SANGER: Inhibition of human NCI-H2171 cell growth in a cell viability assay.

DG-75 = test: cells; format: functional, cell-based, Homo sapiens;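 further: growth inhibition of DG-75 cells, read out with a cell viability assay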
Description: SANGER: Inhibition of human DG-75 cell growth in a cell viability assay.

NCI-H719 = test: cells; format: functional, cell-based, Homo sapiens;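 further: growth inhibition of the cultured cell line, read out with a viability assay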
Description: SANGER: Inhibition of human NCI-H719 cell growth in a cell viability assay.

NB17 = test: cells; format: functional, cell-based, Homo sapiens;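 further: growth inhibition of NB17 cells, read out with a cell viability assay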
Description: SANGER: Inhibition of human NB17 cell growth in a cell viability assay.

RPMI 8402 = test: SANGER: Inhibition of human RPMI-8402 cell growth in a cell viability assay.; format: functional, cell-based
JIYOYE = test: cells; format: functional, cell-based, Homo sapiens
Description: SANGER: Inhibition of human JiyoyeP-2003 cell growth in a cell viability assay.

LB373-MEL-D = test: cells; format: functional, cell-based, Homo sapiens;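 further: growth inhibition of the cell line, read out in a cell viability assay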
Description: SANGER: Inhibition of human LB373-MEL-D cell growth in a cell viability assay.

NCI-H510A = test: cells; format: functional, cell-based, Homo sapiens;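 further: growth inhibition of NCI-H510A cells, read out with a cell viability assay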
Description: SANGER: Inhibition of human NCI-H510A cell growth in a cell viability assay.

SR = test: cells; format: functional, cell-based, Homo sapiens
Description: SANGER: Inhibition of human SR cell growth in a cell viability assay.

NCI-H1522 = test: cells; format: functional, cell-based, Homo sapiens;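 further: growth inhibition of NCI-H1522 cells, read out with a cell viability assay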
Description: SANGER: Inhibition of human NCI-H1522 cell growth in a cell viability assay.

NB1 = test: cells; format: functional, cell-based, Homo sapiens
Description: SANGER: Inhibition of human NB1 cell growth in a cell viability assay.

SU-DHL-1 = test: SANGER: Inhibition of human SU-DHL-1 cell growth in a cell viability assay.; format: functional, cell-based
TALL-1 = test: cells; format: functional, cell-based, Homo sapiens;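 further: growth inhibition of cultured human TALL-1 cells, read out by a cell viability assay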
Description: SANGER: Inhibition of human TALL-1 cell growth in a cell viability assay.

EVSA-T = test: cells; format: functional, cell-based, Homo sapiens;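 further: growth inhibition of EVSA-T cells, read out with a cell viability assay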
Description: SANGER: Inhibition of human EVSA-T cell growth in a cell viability assay.

DMS-153 = test: cells; format: functional, cell-based, Homo sapiens
Description: SANGER: Inhibition of human DMS-153 cell growth in a cell viability assay.

REH = test: cells; format: functional, cell-based, Homo sapiens;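 further: growth inhibition of REH cells determined with a cell viability read-out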
Description: SANGER: Inhibition of human REH cell growth in a cell viability assay.

SUP-T1 = test: cells; format: functional, cell-based, Homo sapiens;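 further: growth inhibition of human SUP-T1 cells, read out as cell viability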
Description: SANGER: Inhibition of human SUP-T1 cell growth in a cell viability assay.

RPMI-6666 = test: cells; format: functional, cell-based, Homo sapiens
Description: SANGER: Inhibition of human RPMI-6666 cell growth in a cell viability assay.

| SMILES | pIC50 (EC-GI-10; Homo sapiens, EC-GI-10) | pIC50 (NCI-H2171; Homo sapiens, NCI-H2171) | pIC50 (DG-75; Homo sapiens, DG-75) | pIC50 (NCI-H719; Homo sapiens, NCI-H719) | pIC50 (NB17; Homo sapiens, NB17) | pIC50 (RPMI 8402; Homo sapiens, RPMI 8402) | pIC50 (JIYOYE; Homo sapiens, JIYOYE) | pIC50 (LB373-MEL-D; Homo sapiens, LB373-MEL-D) | pIC50 (NCI-H510A; Homo sapiens, NCI-H510A) | pIC50 (SR; Homo sapiens, SR) | pIC50 (NCI-H1522; Homo sapiens, NCI-H1522) | pIC50 (NB1; Homo sapiens, NB1) | pIC50 (SU-DHL-1; Homo sapiens, SU-DHL-1) | pIC50 (TALL-1; Homo sapiens, TALL-1) | pIC50 (EVSA-T; Homo sapiens, EVSA-T) | pIC50 (DMS-153; Homo sapiens, DMS-153) | pIC50 (REH; Homo sapiens, REH) | pIC50 (SUP-T1; Homo sapiens, SUP-T1) | pIC50 (RPMI-6666; Homo sapiens, RPMI-6666) | other results |
| --- | --- | --- | --- | --- | --- | --- | --- | --- | --- | --- | --- | --- | --- | --- | --- | --- | --- | --- | --- | --- |
| C[C@@H](Oc1cc(-c2cnn(C3CCNCC3)c2)cnc1N)c1c(Cl)ccc(F)c1Cl [CRIZOTINIB] | < 5.70 | < 5.70 | < 5.70 | < 5.70 | < 5.70 | < 5.70 | < 5.70 | < 5.70 | < 5.70 | 6.90 | < 5.70 | 7.04 | 6.47 | < 5.70 | < 5.70 | < 5.70 | < 5.70 | < 5.70 | < 5.70 |  |
| Nc1ccccc1NC(=O)c1ccc(CNC(=O)OCc2cccnc2)cc1 [ENTINOSTAT] | < 5.30 | 5.87 | 5.64 | 5.93 | 6.26 | 6.41 | 5.87 | 5.64 | 5.69 | 6.47 | 5.65 | 5.89 | 6.18 | < 5.30 | 5.93 | 6.01 | < 5.30 | < 5.30 | 6.39 |  |
| Cc1ccc(NC(=O)c2ccc(CN3CCN(C)CC3)cc2)cc1Nc1nccc(-c2cccnc2)n1 [IMATINIB] | < 5.70 | < 5.70 | < 5.70 | < 5.70 | < 5.70 | < 5.70 | < 5.70 | < 5.70 | < 5.70 | < 5.70 | < 5.70 | < 5.70 | < 5.70 | < 5.70 | < 5.70 | < 5.70 | < 5.70 | < 5.70 | < 5.70 |  |
| CC(C)C[C@@H](C=O)NC(=O)[C@H](CC(C)C)NC(=O)[C@H](CC(C)C)NC(=O)OCc1ccccc1 [MG-132] (Cbz-Leu-Leu-Leu-aldehyde) | < 6.00 |  | < 6.00 |  |  |  |  |  | < 6.00 |  |  |  |  |  |  | < 6.00 |  | < 6.00 |  | pIC50 (EC-GI-10; ec-gi-10): < 6.00; pIC50 (NCI-H2171; nci-h2171): < 6.00; pIC50 (DG-75; dg-75): < 6.00; pIC50 (NCI-H719; nci-h719): < 6.00; pIC50 (NB17; nb17): 6.37 and < 6.00; pIC50 (RPMI 8402; rpmi-8402): < 6.00; pIC50 (JIYOYE; jiyoye): < 6.00; pIC50 (LB373-MEL-D; lb373-mel-d): 6.62 and < 6.00; pIC50 (NCI-H510A; nci-h510a): < 6.00; pIC50 (SR; sr): < 6.00; pIC50 (NCI-H1522; nci-h1522): < 6.00; pIC50 (NB1; nb1): < 6.00; pIC50 (SU-DHL-1; su-dhl-1): < 6.00; pIC50 (TALL-1; tall-1): < 6.00; pIC50 (EVSA-T; evsa-t): 6.30 and < 6.00; pIC50 (DMS-153; dms-153): < 6.00; pIC50 (REH; reh): < 6.00; pIC50 (SUP-T1; sup-t1): < 6.00; pIC50 (RPMI-6666; rpmi-6666): < 6.00 |
| COc1cc(N2CCC(N3CCN(C)CC3)CC2)ccc1Nc1ncc(Cl)c(Nc2ccccc2S(=O)(=O)C(C)C)n1 [TAE-684] | < 5.70 | < 5.70 | < 5.70 | < 5.70 | 6.00 | < 5.70 | < 5.70 | < 5.70 | < 5.70 | 8.56 | < 5.70 | > 8.11 | 7.31 | < 5.70 | < 5.70 | < 5.70 | < 5.70 | < 5.70 | < 5.70 |  |
